Reference: patent US20020012721A1, “Cooked cereal ingredient-containing products fortified with non-ferric edta and insoluble iron compositions and methods for use” (priority 1998, published 2002)

Assays:
[1] = Iron absorption from fortified corn flakes with milk in women, from radioactivity in circulating erythrocytes; assay type: in vivo; conditions: 30 g corn flakes with 150 ml milk, percent iron absorbed normalized by reference dose of ferrous ascorbate
Protocol: An experiment was conducted to validate the effectiveness of combining reduced iron with a non-ferric EDTA salt. Six sources of iron were compared in a study conducted on women.
The study was performed using a serving of corn flakes, approximately 30 g, with the addition of 150 ml lactose free UHT-treated 2% fat cow's milk. The percentage of iron absorbed by the test subjects was determined from radioactivity present in the circulating erythrocytes. Labeled ^59FeCl3 was used as a tracer in the reference dose of ferrous ascorbate and in the treatments containing FeSO4. Labeled ^55FeCl3 was used as a tracer in the treatments containing elemental reduced iron. The percentage of iron absorbed by the test subjects was normalized by the reference dose of ferrous ascorbate.

[2] = Rat hemoglobin repletion method: iron bioavailability of iron phosphate alone or with Na2EDTA versus FeSO4 in rat diet/Corn Flakes; assay type: in vivo, Sprague Dawley rats; conditions: rats; for Percent Absorption Relative to FeSO4: calculated from the slopes; for Slope: hemoglobin gain versus diet iron concentration, common intercept, letters mark estimates that do not differ (P < .10)
Protocol: An additional study was performed to determine the bioavailability of iron phosphate when combined with Na2EDTA. The relative iron bioavailability of the various iron containing compositions in a ready-to-eat cereal product was assayed using a widely accepted method, commonly referred to as the rat hemoglobin repletion method, (modified AOAC method for assessment of relative iron bioavailability), see Williams, S. ed. Official methods of analysis of the Association of Official Analytical Chemists, 14th ed. Arlington, Va. AOAC, 1984; Fritz, J. C. et al., Collaborative Study of rat hemoglobin repletion test for bioavailability of iron, AOAC 1974, 57:513-517. Relative bioavailability of the various iron:EDTA composition was carried out in a series of separate experiments. In each of these experiments, ferrous sulfate was used as the standard or control compound.
Sprague Dawley rats, individually housed in temperature and light controlled units, were fed an iron deficient diet obtained from Harland Tekland Laboratories for 24 days. After this iron depletion phase, the rats were weighed and blood was drawn to test for baseline hemoglobin concentrations. These anemic animals, with hemoglobin levels between […], were then randomly assigned to the control and test groups. Ferrous sulfate, iron phosphate, and iron phosphate with Na2EDTA were separately added to the test diets to achieve concentrations of 6 and 18 and 24 mg iron/kg diet. These diets were then fed to groups of ten animals, ad libitum, for 14 days. Iron levels in the diets, were verified by atomic absorption spectrometry (Blin et al., J. Assoc. Off. Anal. Chem. 1977, 60:1170-1174). After the 14-day test period, hemoglobin concentrations were determined for all animals.
The iron bioavailability of each iron source, assayed relative to ferrous sulfate, was calculated using the slope ratio procedure by comparing the gain in hemoglobin concentration with the iron concentration in the diet (Finney, D. J., Statistical methods in biological assay.2nd ed. 1964; Amine et L., Biological assessment of available iron in food products, J. Agric. Food Chem. 1974, 22:470-476). […] The percent absorption relative to FeSO4 was calculated from the slopes determined from each experiment.
An additional test was conducted feeding rats a purified rat diet/Corn Flakes® fortified with iron phosphate either alone or in combination with Na2EDTA or mixtures of both. […] As described above the bioavailability was determined by assaying the relative change in hemoglobin in rats fed with the various fortified diets with the recommended daily allowance for humans of iron content (RDA).
Three test diets were evaluated: […]

Normalized Absorption ([1]; 25% Daily Value iron) [%]	Percent Absorption Relative to FeSO4 [2] [%]	Slope [2]	Normalized Absorption ([1]; 50% Daily Value iron) [%]	SMILES
11.4	100	0.30 (c)		O=S(=O)([O-])[O-].[Fe+2] [(a) FeSO4, FeSO4]
			6.9	O=S(=O)([O-])[O-].[Fe+2] [(b) FeSO4, FeSO4]
	33	0.10 (a)		O=P([O-])([O-])[O-].[Fe+3] [B) FePO4, FePO4]
